The results in this text go back to ChEMBL document CHEMBL1201862, “PubChem BioAssay data set” (2004).

The target in series [1] is DNA dC->dU-editing enzyme APOBEC-3G (Homo sapiens, UniProt Q9HC16). Kind of series: APOBEC3G deaminase inhibitors, SAR follow-up, biochemical, fluorescence, single-stranded DNA substrate (AID 602136). In kind it is functional. Conditions: read-out: IC50_Mean.
The target in series [2] is DNA dC->dU-editing enzyme APOBEC-3A (Homo sapiens, UniProt P31941). Kind of series: SAR analysis of small molecule inhibitors of APOBEC3A DNA Deaminase via a fluorescence-based single-stranded DNA deaminase assay. In kind it is functional. The following applies: read-out: IC50_Mean.
DNA dC->dU-editing enzyme APOBEC-3A, sequence (P31941 whole entry): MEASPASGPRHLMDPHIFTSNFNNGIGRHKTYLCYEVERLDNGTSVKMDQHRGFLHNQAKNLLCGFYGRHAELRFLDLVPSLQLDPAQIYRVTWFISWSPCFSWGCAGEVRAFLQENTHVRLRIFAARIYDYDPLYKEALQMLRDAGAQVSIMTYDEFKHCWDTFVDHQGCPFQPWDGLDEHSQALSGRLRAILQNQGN
Series [3] deals with T1, Caspase-3 (Homo sapiens, UniProt P42574).
T1 sequence (P42574 whole entry): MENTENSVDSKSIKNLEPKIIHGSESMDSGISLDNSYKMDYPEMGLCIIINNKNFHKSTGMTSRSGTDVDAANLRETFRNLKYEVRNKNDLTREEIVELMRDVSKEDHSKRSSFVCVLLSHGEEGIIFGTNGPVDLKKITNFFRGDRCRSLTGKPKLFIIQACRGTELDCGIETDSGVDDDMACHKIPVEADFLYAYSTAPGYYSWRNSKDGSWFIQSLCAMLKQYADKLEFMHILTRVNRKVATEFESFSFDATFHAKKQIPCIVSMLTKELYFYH
Kind of series: caspase-3 inhibitors as off-family protease, SAR follow-up, selectivity assay for SENP protease inhibitor project, biochemical, luminescence, set 2 (AID 588599). It counts as functional.

Series [4] has as its target T2, Sentrin-specific protease 8 (Homo sapiens, UniProt Q96LD8).
T2 sequence (Q96LD8 whole entry): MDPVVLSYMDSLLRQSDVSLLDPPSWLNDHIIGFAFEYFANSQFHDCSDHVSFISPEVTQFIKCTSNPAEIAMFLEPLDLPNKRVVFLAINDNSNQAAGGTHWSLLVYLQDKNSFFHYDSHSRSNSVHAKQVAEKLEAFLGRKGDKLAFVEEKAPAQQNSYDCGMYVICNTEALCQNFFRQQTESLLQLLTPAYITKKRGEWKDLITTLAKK
Kind of series: SENP8 protease inhibitors, SAR follow-up, biochemical, luminescence, set 2 (AID 588601). It counts as functional.

Series [5] has as its target T3, Sentrin-specific protease 7 (Homo sapiens, UniProt Q9BQF6).
T3 sequence (Q9BQF6 whole entry): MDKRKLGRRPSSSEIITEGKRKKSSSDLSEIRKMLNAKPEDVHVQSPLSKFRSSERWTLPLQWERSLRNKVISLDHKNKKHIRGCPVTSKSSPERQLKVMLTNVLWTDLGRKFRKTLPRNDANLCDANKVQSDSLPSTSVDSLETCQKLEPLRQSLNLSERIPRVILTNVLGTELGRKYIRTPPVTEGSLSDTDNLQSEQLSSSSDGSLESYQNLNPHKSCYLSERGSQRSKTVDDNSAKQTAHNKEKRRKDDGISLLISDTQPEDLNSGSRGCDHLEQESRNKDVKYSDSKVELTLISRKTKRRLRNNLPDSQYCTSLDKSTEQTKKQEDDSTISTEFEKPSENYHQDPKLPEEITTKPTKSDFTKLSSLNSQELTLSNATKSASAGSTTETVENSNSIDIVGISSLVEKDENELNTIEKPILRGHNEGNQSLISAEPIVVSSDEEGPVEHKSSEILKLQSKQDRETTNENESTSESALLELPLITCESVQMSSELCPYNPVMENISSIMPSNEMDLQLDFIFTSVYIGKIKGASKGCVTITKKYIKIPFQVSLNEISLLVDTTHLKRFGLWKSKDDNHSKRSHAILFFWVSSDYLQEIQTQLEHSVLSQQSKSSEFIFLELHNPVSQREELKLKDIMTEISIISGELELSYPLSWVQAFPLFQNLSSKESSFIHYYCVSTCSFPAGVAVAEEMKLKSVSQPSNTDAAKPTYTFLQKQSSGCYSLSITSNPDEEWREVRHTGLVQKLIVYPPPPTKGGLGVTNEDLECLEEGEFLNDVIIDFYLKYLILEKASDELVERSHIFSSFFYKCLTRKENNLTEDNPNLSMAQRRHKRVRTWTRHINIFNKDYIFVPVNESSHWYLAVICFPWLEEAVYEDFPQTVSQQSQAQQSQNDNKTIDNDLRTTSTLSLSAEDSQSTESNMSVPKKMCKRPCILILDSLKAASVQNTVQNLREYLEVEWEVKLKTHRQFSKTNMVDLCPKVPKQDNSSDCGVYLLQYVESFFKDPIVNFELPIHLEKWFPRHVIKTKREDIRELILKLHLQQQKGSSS
Kind of series: SENP7 protease inhibitors, SAR follow-up, biochemical, luminescence, set 2 (AID 588600). It counts as functional.

Series [6] concerns the target T4, Sentrin-specific protease 6 (Homo sapiens, UniProt Q9GZR1).
T4 sequence (Q9GZR1 whole entry): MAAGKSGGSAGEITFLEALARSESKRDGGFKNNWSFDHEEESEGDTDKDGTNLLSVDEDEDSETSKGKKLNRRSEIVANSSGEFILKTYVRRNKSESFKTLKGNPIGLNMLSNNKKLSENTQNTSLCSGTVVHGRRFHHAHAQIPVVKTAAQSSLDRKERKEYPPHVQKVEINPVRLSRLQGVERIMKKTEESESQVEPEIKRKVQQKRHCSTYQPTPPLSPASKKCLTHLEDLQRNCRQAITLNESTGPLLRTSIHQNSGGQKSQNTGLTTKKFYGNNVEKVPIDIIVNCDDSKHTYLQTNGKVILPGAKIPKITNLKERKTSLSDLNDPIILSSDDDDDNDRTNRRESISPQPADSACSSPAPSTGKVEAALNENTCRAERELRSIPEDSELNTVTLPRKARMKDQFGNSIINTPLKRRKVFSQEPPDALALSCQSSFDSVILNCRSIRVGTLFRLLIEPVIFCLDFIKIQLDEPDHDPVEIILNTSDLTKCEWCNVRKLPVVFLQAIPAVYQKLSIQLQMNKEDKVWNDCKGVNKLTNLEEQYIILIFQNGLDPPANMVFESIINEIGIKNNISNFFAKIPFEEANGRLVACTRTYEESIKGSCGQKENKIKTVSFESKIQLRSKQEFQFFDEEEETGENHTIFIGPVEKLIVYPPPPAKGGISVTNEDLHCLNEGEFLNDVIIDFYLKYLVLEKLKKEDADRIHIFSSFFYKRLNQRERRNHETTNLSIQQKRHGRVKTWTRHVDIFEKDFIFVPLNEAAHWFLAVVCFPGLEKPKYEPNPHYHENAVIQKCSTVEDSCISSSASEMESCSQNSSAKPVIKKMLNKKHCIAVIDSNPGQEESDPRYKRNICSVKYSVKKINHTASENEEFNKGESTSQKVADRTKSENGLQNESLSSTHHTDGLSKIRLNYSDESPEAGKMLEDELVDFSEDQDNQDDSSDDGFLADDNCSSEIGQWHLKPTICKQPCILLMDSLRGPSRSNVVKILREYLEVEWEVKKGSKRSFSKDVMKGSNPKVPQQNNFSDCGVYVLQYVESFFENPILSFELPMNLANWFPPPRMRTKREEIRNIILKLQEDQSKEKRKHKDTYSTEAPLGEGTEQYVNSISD
Kind of series: SENP6 protease inhibitors, SAR follow-up, biochemical, luminescence, set 2 (AID 588598). It counts as functional.

In series [7] the target is Cytochrome P450 2C19 (Homo sapiens, UniProt P33261). Kind of series: Cytochrome panel assay with activity outcomes. Panel member name: p450-cyp2c19 Compounds with AC50 equal or less than 10 uM are considered active. In kind it is functional. Conditions: read-out: AC50.
Cytochrome P450 2C19, sequence (P33261 whole entry): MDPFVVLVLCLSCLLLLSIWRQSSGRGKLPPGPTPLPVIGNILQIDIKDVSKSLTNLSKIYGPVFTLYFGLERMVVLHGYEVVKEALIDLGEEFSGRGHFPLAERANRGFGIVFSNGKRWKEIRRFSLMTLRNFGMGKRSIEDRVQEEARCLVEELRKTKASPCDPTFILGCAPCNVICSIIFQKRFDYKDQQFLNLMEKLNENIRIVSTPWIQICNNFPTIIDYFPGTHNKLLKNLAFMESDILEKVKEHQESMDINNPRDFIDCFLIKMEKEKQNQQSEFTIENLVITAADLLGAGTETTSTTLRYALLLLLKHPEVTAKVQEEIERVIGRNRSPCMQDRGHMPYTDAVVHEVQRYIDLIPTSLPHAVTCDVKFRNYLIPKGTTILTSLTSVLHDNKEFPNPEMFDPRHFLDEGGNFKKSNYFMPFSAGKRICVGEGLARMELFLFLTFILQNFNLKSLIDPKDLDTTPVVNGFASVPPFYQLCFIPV
Series [8] addresses Cytochrome P450 2D6 (Homo sapiens, UniProt P10635).
The target in series [9] is Cytochrome P450 2C9 (Homo sapiens, UniProt P11712).
Cytochrome P450 2C9, sequence (P11712 whole entry): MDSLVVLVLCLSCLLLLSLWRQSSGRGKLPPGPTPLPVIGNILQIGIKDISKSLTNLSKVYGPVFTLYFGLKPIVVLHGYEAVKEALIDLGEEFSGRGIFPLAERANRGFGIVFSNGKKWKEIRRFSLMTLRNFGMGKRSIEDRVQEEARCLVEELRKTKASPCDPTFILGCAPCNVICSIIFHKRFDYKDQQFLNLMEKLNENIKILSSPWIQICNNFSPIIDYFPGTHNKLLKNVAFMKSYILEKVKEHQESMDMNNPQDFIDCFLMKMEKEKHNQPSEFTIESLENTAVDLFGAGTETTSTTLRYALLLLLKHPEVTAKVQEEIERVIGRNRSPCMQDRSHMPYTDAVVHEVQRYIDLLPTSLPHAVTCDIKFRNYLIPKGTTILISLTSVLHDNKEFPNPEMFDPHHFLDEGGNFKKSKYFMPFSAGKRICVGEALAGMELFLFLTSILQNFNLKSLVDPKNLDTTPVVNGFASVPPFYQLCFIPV
Series [10] concerns the target T5, Insulin-degrading enzyme (Homo sapiens, UniProt P14735).
T5 sequence (P14735 whole entry): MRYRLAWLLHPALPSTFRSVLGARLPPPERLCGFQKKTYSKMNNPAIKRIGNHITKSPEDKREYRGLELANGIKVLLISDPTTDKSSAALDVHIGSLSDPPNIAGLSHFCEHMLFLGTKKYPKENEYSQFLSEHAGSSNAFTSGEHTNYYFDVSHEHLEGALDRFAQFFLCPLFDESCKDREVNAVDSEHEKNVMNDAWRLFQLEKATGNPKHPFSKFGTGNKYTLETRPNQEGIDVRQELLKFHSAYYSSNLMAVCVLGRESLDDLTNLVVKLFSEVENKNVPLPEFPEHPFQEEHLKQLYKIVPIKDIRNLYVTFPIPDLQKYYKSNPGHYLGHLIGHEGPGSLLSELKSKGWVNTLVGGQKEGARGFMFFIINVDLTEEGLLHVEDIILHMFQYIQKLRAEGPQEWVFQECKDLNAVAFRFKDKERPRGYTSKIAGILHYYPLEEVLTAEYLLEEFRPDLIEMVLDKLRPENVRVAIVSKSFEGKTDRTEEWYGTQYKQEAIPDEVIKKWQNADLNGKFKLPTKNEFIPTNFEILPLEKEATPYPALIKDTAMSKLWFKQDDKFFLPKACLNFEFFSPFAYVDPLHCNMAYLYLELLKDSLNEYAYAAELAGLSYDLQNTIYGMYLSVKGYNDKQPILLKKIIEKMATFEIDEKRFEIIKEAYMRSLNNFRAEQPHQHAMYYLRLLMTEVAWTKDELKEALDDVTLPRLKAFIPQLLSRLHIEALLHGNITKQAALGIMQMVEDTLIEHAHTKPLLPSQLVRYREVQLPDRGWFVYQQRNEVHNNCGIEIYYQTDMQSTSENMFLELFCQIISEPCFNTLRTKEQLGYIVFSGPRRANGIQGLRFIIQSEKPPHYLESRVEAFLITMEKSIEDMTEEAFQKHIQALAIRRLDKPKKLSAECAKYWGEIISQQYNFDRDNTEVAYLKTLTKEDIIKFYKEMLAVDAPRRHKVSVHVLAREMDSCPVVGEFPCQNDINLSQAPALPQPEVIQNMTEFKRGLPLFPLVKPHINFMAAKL
Kind of series: activators of recombinant IDE enzyme, dose response, counter-screen for IDE activator project, biochemical, fluorescence polarization (AID 588681).

Series [11] addresses T5, Insulin-degrading enzyme. Kind of series: activators of endogenous IDE in HEK cells, dose response, cell-based, fluorescence polarization (AID 588439). It counts as functional. A general note: In fluorescence polarisation assays a small probe gives low polarisation when free and higher when bound to something large.
Series [12] deals with HEK293. Kind of series: HEK cell cytotoxicity by LDH release, dose response, cytotoxicity control for IDE activator project, fluorescence, HEK cells (AID 588440).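 Further: cytotoxicity by LDH release measuring loss of membrane integrity.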 Conditions: Homo sapiens. In kind it is functional, cell-based. (LDH leaks from cells whose membrane has failed.)
In series [13] the test system is HEK293. Kind of series: optical interference in Abeta FP readout, dose response, artefact control for IDE activator project, biochemical, fluorescence polarization (AID 588442). Conditions: Homo sapiens. It counts as functional, cell-based.
The target in series [14] is T2, Sentrin-specific protease 8. Kind of series: SENP8 protease inhibitors, SAR follow-up, biochemical, luminescence (AID 504501). It counts as functional.
The target in series [15] is T1, Caspase-3. Kind of series: SAR Analysis of small molecule inhibitors of Sentrin-specific proteases (SENPs) using a Caspase-3 Selectivity assay. [Related pubchem assays (depositor defined):AID2540, AID2599, AID434973, AID489001]. It counts as functional.
The target of series [16] is T4, Sentrin-specific protease 6. Kind of series: SAR Analysis of small molecule inhibitors of Sentrin-specific protease 6 (SENP6) using a Luminescent assay. [Related pubchem assays (depositor defined):AID2582, AID2599]. It counts as functional.
The target of series [17] is T3, Sentrin-specific protease 7. Kind of series: SENP7 protease inhibitors, SAR follow-up, biochemical, luminescence (AID 504497). It counts as functional.

Molecules are shown by their SMILES. The source made the active and inactive calls.

DNA dC->dU-editing enzyme APOBEC-3G, sequence (Q9HC16 whole entry): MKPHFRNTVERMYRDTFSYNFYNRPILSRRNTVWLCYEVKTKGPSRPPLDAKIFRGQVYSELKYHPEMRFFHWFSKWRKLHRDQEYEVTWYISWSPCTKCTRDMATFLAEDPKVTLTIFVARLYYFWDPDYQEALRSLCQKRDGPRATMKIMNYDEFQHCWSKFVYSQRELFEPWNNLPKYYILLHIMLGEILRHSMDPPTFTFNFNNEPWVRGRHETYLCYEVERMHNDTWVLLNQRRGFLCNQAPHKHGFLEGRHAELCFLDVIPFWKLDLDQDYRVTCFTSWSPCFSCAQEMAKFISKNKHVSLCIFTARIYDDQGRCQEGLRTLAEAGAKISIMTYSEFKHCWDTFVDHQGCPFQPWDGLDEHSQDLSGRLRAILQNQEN
Cytochrome P450 2D6, sequence (P10635 whole entry): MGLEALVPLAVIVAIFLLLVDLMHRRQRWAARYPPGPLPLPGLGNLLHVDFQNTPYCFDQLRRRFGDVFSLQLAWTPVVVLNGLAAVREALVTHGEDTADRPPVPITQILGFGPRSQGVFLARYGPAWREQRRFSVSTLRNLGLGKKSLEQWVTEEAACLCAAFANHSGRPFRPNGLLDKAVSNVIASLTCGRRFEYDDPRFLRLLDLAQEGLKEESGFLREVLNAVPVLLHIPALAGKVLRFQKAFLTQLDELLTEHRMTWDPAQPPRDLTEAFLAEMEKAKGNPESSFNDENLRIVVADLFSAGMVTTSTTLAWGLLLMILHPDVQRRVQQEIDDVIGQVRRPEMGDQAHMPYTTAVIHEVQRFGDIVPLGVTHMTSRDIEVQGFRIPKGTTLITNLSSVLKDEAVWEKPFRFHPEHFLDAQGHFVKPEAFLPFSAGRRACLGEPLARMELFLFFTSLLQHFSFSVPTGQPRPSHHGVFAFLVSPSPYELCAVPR

For `Cc1cc(C(=O)Cn2ccccc2=O)c(C)n1Cc1ccccc1`, the IC50 in series [1] and in series [2] was > 99 µM (inactive) each time.

With `CCN1CCN(CCCNC(=O)C(=O)c2c[nH]c3ccccc23)CC1`, the IC50 in [3], in series [4], in [5] and in series [6] was > 99 µM (inactive) in each case.

The AC50 is the midpoint of the concentration-response curve, whichever way the signal moves. For the compound `C=CCSc1nnc(-c2cc3c(C(F)(F)F)nn(C)c3s2)n1C`, the AC50 in series [7] is 3.55 µM (inconclusive); in [8], 17.8 µM (inconclusive); in series [9], “inconclusive”. Further, the IC50 in [1] is 70.8 µM (inactive); in series [2], > 99 µM (inactive).

The term EC50 denotes the concentration needed to bring the measured effect to its halfway point. Take `C1CCCCCC(=NNc2nn[nH]n2)CCCCC1`: the results for the EC50 in series [10], in [11] and in series [13] were > 54.7 µM (inactive), > 54.7 µM (inactive) and > 56 µM (inactive), respectively. In addition, in series [12], the IC50 is > 89.2 µM (inactive).

Turning to `O=C(Nc1ccc(-c2nc3ccccc3o2)cc1)c1ccc2c(c1)OCO2`, the results for the EC50 in series [10], in series [11] and in series [13] were > 54.7 µM (inactive), > 54.7 µM (inactive) and > 55.9 µM (inactive), respectively. Also, in [12], the IC50 was > 9.91 µM (active).

Regarding `Cn1cccc1C(=O)Nc1nc2ccc(Cl)cc2s1`, the IC50 is 0.52 µM (active) in series [14]; 0.465 µM (active) in series [3]; 0.619 µM (active) in series [4]; 0.42 µM (active) in series [15]; 0.558 µM (active) in series [5]; 0.54 µM (active) in [16]. Moreover, the results for the IC50 in [6] and in series [17] were 0.652 µM (active) and 0.49 µM (active), respectively.
